# Measurements as given in patent US7670997B2, “Ophthalmic compositions comprising a branched, glycerol monoalkyl compound and a fatty acid monoester” (Bausch & Lomb Incorporated, priority 2006, dated 2010).
# Like-named read-outs stand apart in the source and are kept apart here.
# Legend:
# [1] = for Foam Height Time = 0 min: after 10 seconds of vigorous shaking; for Foam Height Time = 30 min: after 30 minutes of standing
# Description: In such a test, 50 mL of the solution being tested is placed in a 100 mL graduated cylinder (2.6 cm in diameter). The foam height is measured after 10 seconds of vigorous shaking of the cylinder containing the test solution. Foam height after 30 minutes of standing is also measured to evaluate foam draining propensity of the test solutions.
# [2] = system: Gram-positive bacteria associated with perspiration odor; conditions: Sensiva product literature, Schulke & Mayr; cited from earlier work
# [3] = octoxyglycerin 0.05 ppm in Table 1 formulation
# [4] = octoxyglycerin 0.10 ppm in Table 1 formulation
# [5] = octoxyglycerin 0.25 ppm in Table 1 formulation
# [6] = octoxyglycerin 0.50 ppm in Table 1 formulation
# [7] = octoxyglycerin 0.75 ppm in Table 1 formulation
# [8] = octoxyglycerin 1.00 ppm in Table 1 formulation
# [9] = octoxyglycerin 2.00 ppm in Table 1 formulation
compound,measurement,setting,value
"CCCCC(CC)COCC(O)CO (stereo not shown) [octoxyglycerin, 3-[(2-ethylhexyl)oxy]-1,2-propanediol]",control of foaming,"[1]; amounts over 0.05 ppm, multi-purpose lens care products with over 3.0 wt % foaming surfactants (Pluronic F127, Tetronic 1107)",effective control of foaming
same,Foam Height Time = 0 min,[1]; [3],3.8 ± 0.2 cm
same,Foam Height Time = 30 min,[1]; [3],3.0 ± 0.3 cm
same,Foam Height Time = 0 min,[1]; [4],2.6 ± 0.4 cm
same,Foam Height Time = 30 min,[1]; [4],2.0 ± 0.2 cm
same,Foam Height Time = 0 min,[1]; [5],1.3 ± 0.2 cm
same,Foam Height Time = 30 min,[1]; [5],0.8 ± 0.2 cm
same,Foam Height Time = 0 min,[1]; [6],0.7 ± 0.2 cm
same,Foam Height Time = 30 min,[1]; [6],0.4 ± 0.1 cm
same,Foam Height Time = 0 min,[1]; [7],0.3 ± 0.1 cm
same,Foam Height Time = 30 min,[1]; [7],0.2 ± 0.1 cm
same,Foam Height Time = 0 min,[1]; [8],0.1 ± 0.0 cm
same,Foam Height Time = 30 min,[1]; [8],0.0 ± 0.0 cm
same,Foam Height Time = 0 min,[1]; [9],0.1 ± 0.0 cm
same,Foam Height Time = 30 min,[1]; [9],0.0 ± 0.0 cm
same,antimicrobial activity against Gram-positive bacteria,[2],exhibit antimicrobial activity
